A short description of data set [1]: Denaturing of other liquid hydrocarbons with a BITREX solution in TEXANOL. It counts as physicochemical. The following applies: 0.1% solution of BITREX in co-solvent stirred in; white spirit, dearomatised white spirit and isoparaffin. From the text:
(§1) As an illustrative example of procedure, one may prepare a 40ppm "BITREX®" doped lamp oil by simply stirring in a previously prepared 0.1% solution of "BITREX®" in the selected co-solvent TEXANOL® to a level of 4% (all amounts described herein are w/w). A similar procedure was found effective in denaturing, white spirit, dearomatised white spirit, and isoparaffin.

Data set [2] in a line: Evaluation of co-solvents for a clear stable formulation of denatonium benzoate in lamp oil. It counts as physicochemical. The arrangement: key to Assessment: Those combinations marked as "FAIL" were observed to exhibit turbidity and insufficient stability in the amount of denaturant introduced to the lamp oil; PASS: success in obtaining a clear stable formulation of the preferred denaturant. The following applies: for Assessment: clear stable formulation of denatonium benzoate/"BITREX" in lamp oil, only the co-solvent varied.
Source text: The following Table I summarises the results of this evaluation stage, and in particular assesses the success in obtaining a clear stable formulation of the preferred denaturant (denatonium benzoate/ "BITREX"®) in a target commercial product to be denatured (lamp oil). […] In each case, the only critical variation lay in the selection of the co-solvent. Apart from the attempted use of rape seed oil, it is assumed that the co-solvent is essentially a single chemical entity.
as §1

A short description of data set [3]: Alkanol co-solvents enabling introduction of BITREX at the desired level. It counts as physicochemical. The following applies: co-solvent for BITREX in liquid hydrocarbon.
For data set [4] the following is noted: as low as; cited from earlier work.
For data set [5] the following is noted: cited from earlier work.

With “2,2,4-trimethylpentan-1,3-diol-monoisobutanoate”, the effective in denaturing result in data set [1] is listed as “effective”. In addition, the Assessment entry in data set [2] is “PASS”. For the same compound, the “effectiveness in achieving the objective of the invention” value in data set [2] (denatonium benzoate in lamp oil, summary of Table I) is recorded as “highly effective”.

As to `CCCCCCCCCCCCCCCCO` [1-hexadecanol], in data set [3], the “effective in enabling introduction of the preferred aversive agent "BITREX" at the desired level” value is “effective”.

`CCCCCCCCO` [1-octanol]: the “effective in enabling introduction of the preferred aversive agent "BITREX" at the desired level” value in data set [3] is recorded as “effective”.

Consider `CCCCC(CC)COC(=O)C(CC)CCCC` (centres unmarked) [2-Ethylhexyl-2-ethylhexanoate], for which the Assessment entry in data set [2] is given as “FAIL”.

Take `CCCCCCCCCCCC(=O)OCC(CC)CCCC` (centres unmarked) [2-Ethylhexyllaurate]: in data set [2], the Assessment result is on record as “FAIL”.

Regarding `CCCCCCCCCC(=O)OC(C)C` [Isopropyldecanoate], the Assessment entry in data set [2] is given as “FAIL”.

As to `CCCCCCCCCCCC(=O)OC(C)C` [Isopropyllaurate], in data set [2], the Assessment result is “FAIL”.

Take `CC[N+](CC)(CC(=O)Nc1c(C)cccc1C)Cc1ccccc1` [denatonium benzoate, Denatonium benzoate]: in data set [4], the “concentration giving an acceptable level of aversive activity” value is given as 10 ppm. For the same compound, the “solubility in apolar liquids” value in data set [5] is recorded as “extremely insoluble”.

The values above are taken from patent EP1080165B1, “HYDROCARBON LIQUID FORMULATION” (MACFARLAN SMITH LIMITED, priority 1998, dated 1999).
